According to patent publication US12312378B2, “Glucosamine derivatives for the prevention or treatment of joint disorders” (RISEN (SUZHOU) PHARMA TECH CO., LTD., priority 2017, dated 2025):
Entries after “also recorded” stand apart in the source; their conditions may differ. Marks after values point to notes of the source that are not given here.

Tests used:
[1] = tested on: MMT-induced model of osteoarthritis; test: Medial meniscus transection (MMT) model in rats; type: in vivo, rat; details: for Weight bearing (right paw, %), mean: G2, gavage 4 times every day
Excerpt: In the rat MMT model, the unilateral knee (right knee) was cleaned and prepped for surgery. An incision was made over the medial aspect of the femoro-tibial joint. The medial collateral ligament was exposed via blunt dissection and transected to reflect the meniscus toward the femur. A full thickness cut was made through the meniscus at its narrowest point. The joint space was returned to normal, and the skin was closed and the animal allowed to recover. For the present study, at second day post MMT induction animals, G1 and G2 animals were treatment with vehicle and test compound 16 respectively. Animals were dosed 4 times every day, and were dosed by gavage for 4 weeks.

MIA-induced OA rat model = test: Monosodium iodoacetate-induced osteoarthritis (MIA) model in rat knee; type: in vivo
Experimental: Osteoarthritis was induced by intra-articular (i.a.) injection of MIA solution in the rat knee joint as follows: Briefly, rats were anesthetized with isoflurane and given a single i.a. administration of 2 mg of MIA dissolved in saline through the intrapatellar ligament of the right knee. MIA was administered in a volume of 50 μL. Basal readings were established using a group of control rats injected with 10% ethanol in water. Rats were randomized by initial body weight to groups of 6 or 7. After MIA injection, the MIA groups began treatment with either vehicle, or a test compound at a preset dose regime for a period of 28 days. Clinical observations were recorded, including body weight, joint swelling, and weight bearing, on pre-induction day (day 0), day 3, 5, 7, 14, 21 and/or 28. At the end of the study, the animals were euthanized by CO2 and sacrificed. Joint samples including the tibia and femur were sectioned in the coronal plane and stained using both H&E and Safranin-O. Knee joints were examined and scored for cartilage degeneration, the presence of osteophytes, the amount and extent of calcified cartilage and subchondral bone damage, and the amount of synovial membrane inflammation using the Osteoarthritis Research Society International (OARSI) scoring system put forth in 2010 (Kraus, V. B. et al., Osteoarthritis Cartilage, 2010, Suppl 3:S35-52).
Studies of compound 16 in the MIA model were conducted as described above.

[2] = Pharmacokinetic study in SD rats: plasma GlcNBu after oral gavage of test compound; type: in vivo, Sprague-Dawley (SD) rats; parameters: key: (—): not detected; details: Table 5: plasma GlcNBu after oral administration of the indicated compound, 0.93 mmol/kg
Experimental: A test compound is dissolved in water at a concentration determined by the desired dose and dosing volume for the specific animal to which the compound is to be administered. A calculated volume of dosing solution is administered to the animal (PO, SQ, IP, or IV). A blood sample is collected following administration of the test compound at specific time points (such as 0 minutes (min), 5 min, 10 min, 15 min, 30 min, 1 hour (h), 1.5 h, 2 h, 3 h, 4, 6 h, etc.). The blood sample is converted to a plasma sample using standard techniques. The plasma samples are analyzed to determine the concentration of the test compound and, in some cases, GlcNBu.
According to the above general procedure, SD rats were grouped randomly into groups of six (n=6). The test compound, GlcNBu or a compound provided herein, was administered to the animals by oral gavage at a dose of 0.93 mmol/kg. For illustration purposes, GlcNBu was given at an oral dose of 232 mg/kg (0.93 mmol/kg), and compound 16 was administered at an equal molar dose (0.93 mmol/kg, i.e., 362 mg/kg). At pre-set time points, blood was taken through orbital venous plexus extraction, and the samples were analyzed using LC/MS-MS to determine the GlcNBu concentration in the plasma.
In the figure, Curves labeled with -●- and -▴- represent plasma GlcNBu concentration following oral administration of GlcNBu (232 mg/kg, or 0.93 mmol/kg) and compound 16 ([…], or 0.93 mmol/kg), respectively. […] FIG. 2A and FIG. 2B show examples of other compounds of the invention, presented in plasma GlcNBu concentration versus time curves; a summary of pharmacokinetic parameters for these compounds is given in Table 4 and Table 5.

OVX rat = details: GlcNBu feeding in the OVX rat; cited from earlier work
[3] = tested on: destructive arthritis rat model; details: cited from earlier work
[4] = rats; data from i.v., i.p., and p.o. studies; cited from earlier work
[5] = rats; cited from earlier work
[6] = humans, cited from earlier work
[7] = G2, histopathology after 4 weeks of dosing

CCCC(=O)N[C@H]1C(O)O[C@H](COC(=O)CCC)[C@@H](OC(=O)CCC)[C@@H]1O (stereo partly drawn) [Compound 16, 2-N-4,6-O-tributyryl-D-glucosamine]
degeneration changes of chondrocyte clustering, G2 compared with G1 [1]: significantly lower; also recorded: significantly less
values in all histology parameters, G2 versus G1 [1]: lower
weight bearing on the right paw, G2 compared with G1 ([1]; Day 3 and Days 14-28): significantly increased; also recorded: significantly more
Weight bearing (right paw, %), mean ([1]; Day 3): 36.68* %
Weight bearing (right paw, %), mean ([1]; Day 5): 39.76%
Weight bearing (right paw, %), mean ([1]; Day 7): 40.68%
Weight bearing (right paw, %), mean ([1]; Day 14): 42.71* %
Weight bearing (right paw, %), mean ([1]; Day 21): 43.73** %
Weight bearing (right paw, %), mean ([1]; Day 28): 44.06** %
Weight bearing (right paw, %), mean ([1]; Pre-injection baseline): 49.55%
Chondrocyte clustering (0-4), mean [1, 7]: 1.17*
Degenerative changes in cartilage (0-4), mean [1, 7]: 1.17
Inflammatory response in subchondral bone region (0-4), mean [1, 7]: 0.00
Nature of predominant tissue (0-4), mean [1, 7]: 1.00
Neo-vascularization (0-4), mean [1, 7]: 0.00
Osteophytes (0-4), mean [1, 7]: 1.17
Structural integrity (0-4), mean [1, 7]: 1.17
Surface regularity (0-4), mean [1, 7]: 1.67
Total scoring, mean [1, 7]: 7.33
Weight bearing, mean (MIA-induced OA rat model; MIA rats, Group 2, 234 mg/kg, Day 3): 32.07%
Weight bearing, mean (MIA-induced OA rat model; MIA rats, Group 2, 234 mg/kg, Day 5): 35.76** %
Weight bearing, mean (MIA-induced OA rat model; MIA rats, Group 2, 234 mg/kg, Day 7): 37.72%
Weight bearing, mean (MIA-induced OA rat model; MIA rats, Group 2, 234 mg/kg, Day 14): 40.86%
Weight bearing, mean (MIA-induced OA rat model; MIA rats, Group 2, 234 mg/kg, Day 21): 44.12%
Weight bearing, mean (MIA-induced OA rat model; MIA rats, Group 2, 234 mg/kg, Day 28): 45.90%
Weight bearing, mean (MIA-induced OA rat model; MIA rats, Group 2, 234 mg/kg, Pre-Injection (Day 0) baseline): 50.49%
Weight bearing, mean (MIA-induced OA rat model; MIA rats, Group 3, 468 mg/kg, Day 3): 34.56%
Weight bearing, mean (MIA-induced OA rat model; MIA rats, Group 3, 468 mg/kg, Day 5): 37.40** %
Weight bearing, mean (MIA-induced OA rat model; MIA rats, Group 3, 468 mg/kg, Day 7): 39.23%
Weight bearing, mean (MIA-induced OA rat model; MIA rats, Group 3, 468 mg/kg, Day 14): 41.68* %
Weight bearing, mean (MIA-induced OA rat model; MIA rats, Group 3, 468 mg/kg, Day 21): 44.25%
Weight bearing, mean (MIA-induced OA rat model; MIA rats, Group 3, 468 mg/kg, Day 28): 44.98%
Weight bearing, mean (MIA-induced OA rat model; MIA rats, Group 3, 468 mg/kg, Pre-Injection (Day 0) baseline): 50.25%
weight bearing on the back-right leg versus vehicle (MIA-induced OA rat model; MIA rats, day 5, all compound-treated groups (234 and 468 mg/kg)): significant increases
weight bearing versus vehicle (MIA-induced OA rat model; MIA rats, high dose (G3, 468 mg/kg), day 14): significant increases
osteophytes versus vehicle group (MIA-induced OA rat model; MIA rats, high dose group (468 mg/kg), histology): significantly decreased
all other mean values for each histological parameter (MIA-induced OA rat model; MIA rats, high dose treated group (468 mg/kg)): clear trend of lowering
articular cartilage degeneration (MIA-induced OA rat model; MIA-induced OA rat model): slowed

CCCC(=O)N[C@@H]1C(OC(=O)CCC)O[C@H](COC(=O)CCC)[C@@H](OC(=O)CCC)[C@@H]1O (stereo partly drawn) [Compound 74, 2-N-1,4,6-tri-O-tetrabutyryl-D-glucosamine]
AUC0-t [2]: 662 ng·h/mL
AUC0-∞ [2]: 889 ng·h/mL
CLz/F [2]: 367 mL/min/kg
Cmax [2]: 426 ng/mL
Tmax [2]: 0 h
t1/2z [2]: 1 h

CCCC(=O)N[C@H]1C(OCc2ccccc2)O[C@H](CO)[C@@H](O)[C@@H]1O (stereo partly drawn) [Compound 75, 1-O-benzyl-2-N-butyryl-D-glucosamine]
AUC0-t [2]: (—)
AUC0-∞ [2]: (—)
CLz/F [2]: (—)
Cmax [2]: (—)
Tmax [2]: (—)
Vz/F [2]: (—)
t1/2z [2]: (—)

CCCC(=O)N[C@H]1C(OCc2ccccc2)O[C@H](CO)[C@@H](O)[C@@H]1OCc1ccccc1 (stereo partly drawn) [Compound 76, 2-N-butyryl-1,3-di-O-benzyl-D-glucosamine]
AUC0-t [2]: (—)
AUC0-∞ [2]: (—)
CLz/F [2]: (—)
Cmax [2]: (—)
Tmax [2]: (—)
Vz/F [2]: (—)
t1/2z [2]: (—)

CCCC(=O)N[C@H]1C(O)O[C@H](COC(=O)CCC(=O)O)[C@@H](OC(=O)CCC(=O)O)[C@@H]1O (stereo partly drawn) [Compound 79, 2-N-butyryl-4,6-di-O-(4-hydroxy-4-oxo-butyryl)-D-glucosamine]
AUC0-t [2]: (—)
AUC0-∞ [2]: (—)
CLz/F [2]: (—)
Cmax [2]: (—)
Tmax [2]: (—)
Vz/F [2]: (—)
t1/2z [2]: (—)

CCCC(=O)N[C@H]1C(O)O[C@H](CO)[C@@H](O[C@@H]2O[C@H](CO)[C@@H](O)[C@H](O)[C@H]2O)[C@@H]1O (stereo partly drawn) [Compound 89, 2-N-butyryl-4-O-(D-glucopyranosyl)-D-glucosamine]
AUC0-t [2]: 1757 ng·h/mL
AUC0-∞ [2]: 1942 ng·h/mL
CLz/F [2]: 167 mL/min/kg
Cmax [2]: 1110 ng/mL
Tmax [2]: 2 h
t1/2z [2]: 1 h

CCCC(=O)N[C@H]1C(O)O[C@H](COC(=O)NCCCC(=O)O)[C@@H](O)[C@@H]1O (stereo partly drawn) [Compound 94, 2-N-butyryl-6-O-((3-carboxy-1-propyl)aminocarbonyl)-D-glucosamine]
AUC0-t [2]: (—)
AUC0-∞ [2]: (—)
CLz/F [2]: (—)
Cmax [2]: (—)
Tmax [2]: (—)
Vz/F [2]: (—)
t1/2z [2]: (—)

CCCC(=O)N[C@H]1C(O)O[C@H](CO)[C@@H](O)[C@@H]1O (stereo partly drawn) [GlcNBu, N-butyryl glucosamine]
bone mineral and some biomechanical properties (OVX rat): preserves
subchondral bone structure [3]: preserved strikingly
half-life [4]: about 20 min

N[C@H]1C(O)O[C@H](CO)[C@@H](O)[C@@H]1O (stereo partly drawn) [Glucosamine, glucosamine]
oral bioavailability (F) [5]: 0.19-0.21
serum levels ([6]; very large doses, after oral or IV administration): cannot be detected

CC(=O)N[C@H]1C(O)O[C@H](CO)[C@@H](O)[C@@H]1O (stereo partly drawn) [N-acetylglucosamine]
half-life compared with glucosamine ([6]; polyvalent or monovalent form): longer
